According to US20250214980A1, “MULTICYCLIC COMPOUNDS” (SLAP Pharmaceuticals LLC, priority 2022, published 2025):

Molecular target: T1, PARP1 (Homo sapiens (Human), UniProt P09874)
Test: cell-based assay (Proliferation Assay (PARP Inhibitors) in DLD-1 wt and DLD-1 BRCA2), Table 1
Description: Proliferation Assay (PARP Inhibitors) in DLD-1 wt and DLD-1 BRCA2
DLD-1-wt and DLD-1 mutant cells are cultured in RPMI 1640+10% FBS+1% PS. The cells are harvested into culture media for 2-3 days. The cells are diluted into culture media (density 2˜3×10^6) and 40 μL of cell suspension (50 cells/well for DLD-1 wt and 50 cells/well for DLD-1 BRCA (-/-). The plates are covered and spun at rt at 1000 rpm, for 1 minute and then transferred. The plates are placed into 37° C. 5% CO2 incubator overnight. Test compounds are dissolved at 10 mM DMSO stock solution and then 40 μL of stock solution is transferred to a 384 PP-plate. A 10-point dilution is carried out by transferring 10 uL compound into 30 μL DMSO by using TECAN (EVO200) liquid handler. The plates are spun at rt at 1000 rpm for 1 minute and then shaken on a plate shaker for 2 minutes. Forty nL of diluted compound is transferred into the cell plate by using a liquid handler. After 7 days of incubation, a CTG detection assay is performed. The CTG detection assay is carried out by removing the plates from the incubators and then equilibrated at rt for 15 minutes. The CellTiter Glo reagents are thawed and equilibrated at rt. CellTiter-Glo reagent ([…]) is added into each well, and the plates are placed at rt for 30 minutes followed by reading on EnVision. The inhibition activity is calculated using the formula: % Inhibition=100×(LumHC−LumSample)/(LumHC−LumLC).
In Table 1, ‘A’ indicates an IC50 of <0.1 μM, ‘B’ indicates an IC50 of ≥0.1 μM and <1.0 μM, and ‘C’ indicates an IC50 of ≥[…]. As shown by the results in Table 1, compounds of Formula (I), including pharmaceutically acceptable salts thereof, are effective PARP1 inhibitors.
Target sequence in this assay (P09874 whole entry): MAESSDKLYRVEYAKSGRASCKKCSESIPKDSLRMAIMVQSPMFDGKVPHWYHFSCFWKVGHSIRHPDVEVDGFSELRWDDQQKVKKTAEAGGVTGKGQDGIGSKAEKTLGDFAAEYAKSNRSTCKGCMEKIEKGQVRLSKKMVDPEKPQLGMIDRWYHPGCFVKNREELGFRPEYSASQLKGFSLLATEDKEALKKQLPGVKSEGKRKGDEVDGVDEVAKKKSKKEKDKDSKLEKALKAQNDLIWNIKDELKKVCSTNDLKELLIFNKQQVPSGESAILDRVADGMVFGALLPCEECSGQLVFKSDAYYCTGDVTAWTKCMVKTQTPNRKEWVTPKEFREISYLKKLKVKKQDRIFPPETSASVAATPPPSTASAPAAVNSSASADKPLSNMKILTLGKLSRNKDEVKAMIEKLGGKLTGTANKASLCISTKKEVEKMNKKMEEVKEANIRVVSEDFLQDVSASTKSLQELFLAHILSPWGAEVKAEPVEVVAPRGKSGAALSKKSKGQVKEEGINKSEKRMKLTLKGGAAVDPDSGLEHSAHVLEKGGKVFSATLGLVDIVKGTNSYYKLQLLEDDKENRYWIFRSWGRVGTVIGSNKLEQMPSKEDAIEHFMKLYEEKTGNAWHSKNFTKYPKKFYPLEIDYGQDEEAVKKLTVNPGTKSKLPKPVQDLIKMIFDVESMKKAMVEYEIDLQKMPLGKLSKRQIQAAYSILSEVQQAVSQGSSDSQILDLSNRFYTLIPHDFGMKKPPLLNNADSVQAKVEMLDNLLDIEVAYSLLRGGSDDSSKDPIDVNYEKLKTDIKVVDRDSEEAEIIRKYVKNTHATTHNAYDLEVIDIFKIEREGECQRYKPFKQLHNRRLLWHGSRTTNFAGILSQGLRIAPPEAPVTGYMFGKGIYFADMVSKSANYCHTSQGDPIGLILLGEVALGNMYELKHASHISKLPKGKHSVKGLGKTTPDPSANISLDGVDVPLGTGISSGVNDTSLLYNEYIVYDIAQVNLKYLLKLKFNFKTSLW

SMILES	IC50 [nM]
CC[C@@H]1Oc2ccc(CN3CCN(c4ccc(C(=O)NC)nc4)CC3)cc2NC1=O (single isomer, unassigned) [Compound 1ab]	< 100
CC[C@@H]1Oc2ccc(CN3CCN(c4ccc(C(=O)NC)nc4C)CC3)cc2NC1=O (single isomer, unassigned) [Compound 2ab]	< 100
CC[C@H]1Oc2ccc(CN3CCN(c4ccc(C(=O)NC)nc4)CC3)cc2NC1=O [Compound 1aa]	< 100
CC[C@H]1Oc2ccc(CN3CCN(c4ccc(C(=O)NC)nc4C)CC3)cc2NC1=O [Compound 2aa]	< 100
CCC1Oc2ccc(CN3CCN(c4ccc(C(=O)NC)nc4)CC3)cc2NC1=O (centres unmarked) [Compound A1]	< 100
CNC(=O)c1ccc(N2CCN(Cc3ccc4c(c3)NC(=O)C3(CC3)O4)CC2)c(F)n1 [Compound A7]	< 100
CNC(=O)c1ccc(N2CCN(Cc3ccc4c(c3F)NC(=O)C3(CC3)O4)CC2)c(F)n1 [Compound A9]	< 100

Molecular target: T1, PARP1
Test: biochemical assay (FP Binding Assay PARP1), Table 2
Description: FP Binding Assay (PARP1, PARP2)
The PARP1 and PARP 2 protein and the PARPi-FL were purchased from BPS Bioscience. The assay buffer was 50 mM Tris pH 8.0, 0.001% Triton X-100, 10 mM MgCl2, 150 mM NaCl. The compounds were diluted into top point concentration in 384PP-plate and transferred serially into an Optiplate-384F plate. Compound (20 nL) or DMSO was added to assay plate and then 10 μL of 40 nM PARP1 or PARP2 (diluted using assay buffer) was added. The assay plate was centrifuged at 1000 rpm for 1 min and then incubated for 30 min at rt. 6 nM PARPi-FL (diluted using assay buffer) (10 uL) was added to the plate (final concentration of PARP1 and PARP2 was 20 nM, and PARPi-FL was 3 nM). After centrifuging at 1000 rpm for 1 min, the assay plate was incubated at rt 4 h. The plates were read using Envision with Excitation filter. The data analysis was done by calculating the inhibition rate using mP value using the following equation. Inhibition (%)=(1−mpC−mpL)/mpH−mpL×100%.
As shown by the results in Table 2, compounds of Formula (I), including pharmaceutically acceptable salts thereof, are effective PARP1 inhibitors.
Target sequence in this assay (P09874 whole entry, species assumed): as the sequence (P09874 whole entry) above

SMILES	IC50 [nM]
CNC(=O)c1ccc(N2CCN(Cc3ccc4c(c3)NC(=O)C3(CC3)O4)CC2)c(F)n1 [Compound A7]	< 5
